Results: patent US9987242B2, “Treatment of Levodopa-induced Dyskinesias” (NORTHWESTERN UNIVERSITY, priority 2015, dated 2018)
Entries after “also recorded” stand apart in the source; their conditions may differ.

Legend:
[1] = test system: dSPN glutamatergic synapses; assay: Spike-timing-dependent LTD induction (post-pre pairing) in dSPNs, ex vivo corticostriatal slices, perforated-patch or whole-cell recording; format: cell-based, mice
Excerpt: Male C57Bl/6 and FVB mice expressing tdTomato or eGFP under control of either the Drd1 or Drd2 receptor regulatory elements were used. All the mice used for the study were hemizygous for these transgenes. For some experiments, D1-tdTomato BAC mice were crossed with a transgenic line expressing Cre recombinase under control of the ChAT promoter. All mice were 8-10 weeks of age before stereotaxic surgery. Animal use procedures were reviewed and approved by the Northwestern Institutional Animal Care and Use Committee.
Slices were then transferred to a holding chamber containing aCSF. After an incubation period at 34° C. for 30 min, the slices were then kept in the holding chamber at the room temperature for another 30 min before use.
Individual slices were transferred to a recording chamber and were continuously perfused (2-3 ml min^−1) with aCSF for the duration of the experiment. Experiments were performed in the dorsolateral striatum at elevated temperature (30-31° C.).
All the recordings were made using a MultiClamp 700 A amplifier, and signals were filtered at 2 kHz and digitized at 10 kHz. Data were excluded when the series resistance changed >20% over the time course of the experiment. […] Capacitance current was continuously monitored during perforation by applying a 5-10 mV pulse from a holding potential of −70 mV. The amplifier bridge circuit was adjusted to compensate for series resistance and continuously monitored during recordings. Electrode capacitance was also compensated. Data were excluded when the input resistance (Ri) changed >20% over the time course of the experiment.
Data analysis was conducted with Igor Pro 6 (Wavemetrics, Lake Oswego, Oreg.) and Clampfit 9 (Molecular Devices). EPSP amplitude was calculated from 50-60 sweeps immediately before the start of induction and 20-30 min after the end of induction. The change in EPSP amplitude was calculated by averaging EPSP values after the induction and normalized to the average baseline EPSP amplitude. Compiled data were expressed as mean±s.e.m. Statistical tests were performed using Excel (Microsoft, Redmond, Wash.) and SigmaStat (Systat, San Jose, Calif.). Non-parametric Mann-Whitney or Wilcoxon tests were used to assess the experiment results, using a probability threshold of 0.05.
To determine if M4Rs were modulating synaptic plasticity, a spike-timing-dependent plasticity (STDP) paradigm was used. […] Once identified, neurons were monitored and controlled with perforated-patch recording to preserve intracellular signaling mechanisms and to allow stable, long-term monitoring of synaptic strength (FIG. 1A).
Synaptic plasticity was induced by pairing local stimulation of glutamatergic afferent fibers with postsynaptic spikes evoked by short bursts of intracellular current injection that were repeated at 5 Hz (FIGS. 1B, 4A).

[2] = test system: dSPN glutamatergic synapses; assay: Spike-timing-dependent LTP induction (pre-post pairing) in dSPNs, ex vivo slices; format: cell-based, mice
forelimb use asymmetry = assay: Forelimb-use asymmetry test (cylinder test) in 6-OHDA lesioned mice; format: in vivo; conditions: for forelimb use asymmetry: n=9
Protocol: (§1) After LID induction, mice were treated with either L-DOPA or L-DOPA and VU152100 (20-120 mg/kg, i.p.) on days 6-8; VU152100 is an M4R PAM with improved pharmacokinetic properties than VU10010.

iSPN synapses = assay: Pre-post pairing protocol in iSPNs from 6-OHDA lesioned, L-DOPA treated mice; conditions: 6-OHDA lesioned mice shortly after L-DOPA treatment
[3] = test system: ChIs expressing DREADD hM3D(q); assay: Discharge rate of DREADD hM3D(q)-expressing cholinergic interneurons, cell-attached patches in slices; format: cell-based, mice
Excerpt: To determine the importance of endogenous cholinergic signaling in regulating synaptic plasticity, the discharge rate of ChIs was elevated using a Cre-dependent DREADD (Alexander et al., 2009; Armbruster et al., 2007; Ferguson et al., 2011; Kozorovitskiy et al., 2012; herein incorporated by reference in their entireties). Briefly, bi-transgenic mice expressing tdTomato in dSPNs and Cre-recombinase under control of the choline acetyltransferase (ChAT) promoter received striatal stereotaxic injections of an adeno-associated virus (AAV; serotype 2/8) containing the hM3D(q) expression construct (the University of North Carolina Vector Core). Mice were allowed to recover for 5-6 weeks before recordings. To activate the DREADD expressing ChIs, clozapine-N-oxide (CNO) was bath applied to ex vivo brain slice preparations.
To address the possibility that in an ex vivo slice preparation at 30-31° C., spontaneous ChI activity is low and could lead to effective enzymatic degradation of ACh near its release site and weak M4R activation, the ACh esterase inhibitor physostigmine (10 μM) was co-applied with the M4R PAM. […] Another way to compensate for lower than normal cholinergic signaling in ex vivo slices is to use designer receptors exclusively activated by designer drugs (DREADDs) to selectively increase ChI discharge rate (Alexander et al., 2009; Armbruster et al., 2007; herein incorporated by reference in their entireties). To this end, bi-transgenic mice expressing tdTomato in dSPNs and Cre-recombinase under control of the choline acetyltransferase (ChAT) promoter received striatal injections of an adeno-associated virus (AAV) containing an hM3D(q) expression construct having an upstream foxed STOP codon; this STOP codon is effectively excised by Cre-recombinase leading to DREADD expression (Ferguson et al., 2011; Kozorovitskiy et al., 2012; herein incorporated by reference in their entireties) (FIG. 2A). […]

[4] = test system: NMDAR-mediated currents in dSPNs; assay: NMDAR-mediated uEPSCs and EPSCs in dSPNs, whole-cell voltage clamp; format: cell-based, mice; conditions: muscarine 3 μM; local electrical stimulation
Protocol: For whole-cell voltage clamp recordings, patch pipettes were loaded with internal recording solution containing (mM): 120 CsMeSO3, 15 CsCl, 8 NaCl, 10 HEPES, 0.2 EGTA, 10 tetraethylammonium Chloride (TEA-Cl), 5 QX-314, 2 Mg-ATP, 0.3 Na-GTP; pH was adjusted to 7.25 with CsOH and osmolarity to ˜305 mOsm l^−1. All the recordings were made using a MultiClamp 700 A amplifier, and signals were filtered at 2 kHz and digitized at 10 kHz. Data were excluded when the series resistance changed >20% over the time course of the experiment. For perforated patch recordings, the internal recording solution comprised (in mM): 125 KMeSO4, 14 KCl, 2 MgCl2, 0.2 EGTA, 10 HEPES; pH was adjusted to 7.25 with NaOH and osmolarity to ˜280 mOsm l^−1. Amphotericin B was used to achieve electrical access through the perforated-patch method (Shen et al., 2007; 2008; herein incorporated by reference in their entireties). Capacitance current was continuously monitored during perforation by applying a 5-10 mV pulse from a holding potential of −70 mV. The amplifier bridge circuit was adjusted to compensate for series resistance and continuously monitored during recordings. Electrode capacitance was also compensated. Data were excluded when the input resistance (Ri) changed >20% over the time course of the experiment.
Glutamate uncaging was achieved using a Verdi/Mira (Coherent Laser Group, Santa Clara, Calif.) (Plotkin et al., 2014). 5 mM MNI-glutamate was superfused over the slice at 0.4 ml/hr using a syring pump and multi-barreled perfusion manifold (Cell MicroControls, Norfolk, Va.). The perfusion solution was (in mM): 124 NaCl, 3 KCl, 2 CaCl2, 1 NaH2PO4, 26 HEPES and 16.66 glucose, and also contained (in μM): 3 muscarine, 10 serine, 10 NBQX and 10 gabazine, plus or minus: 3 SKF81297 and/or 5 VU10010). Glutamate was uncaged adjacent to individual spines using 1 ms pulses of 720-725 nm light typically 10-20 mW in power at the sample plane. Photolysis power was tuned via a third Pockels cell modulator (Con Optics, Danbury, Conn.) to achieve uEPSCs≤5 pA. uEPSC amplitudes were measured from averaged (3-5 repetitions) traces. All uncaging experiments were performed in 0 mM Mg^2+-containing solutions.
To determine the situation in dSPNs, the effect of muscarine and VU10010 on NMDAR-mediated EPSCs evoked by uncaging glutamate on spine heads (uEPSCs) was examined in the presence of SKF81297.

L-DOPA-induced AIMs = assay: Abnormal involuntary movement (AIM) scoring in unilateral 6-OHDA lesioned mice with L-DOPA-induced dyskinesia; format: in vivo
Protocol: as §1

[5] = test system: phosphorylated ERK1/2 and phosphorylated histone 3; assay: Cells immunoreactive for pERK1/2 and pH3 in the dorsolateral striatum of LID mice; format: in vivo
Protocol: as §1

[6] = VU152100 co-administered with L-DOPA vs L-DOPA

N[C@@H](CCCP(=O)(O)O)C(=O)O [APV]
LTD induction in dSPNs ([1]; APV 50 μM with VU10010 5 μM): LTD was inducible

N#CC(=C(/N)Sc1ccccc1N)/C(C#N)=C(\N)Sc1ccccc1N [U0126]
STDP LTP induction in dSPNs ([2]; U0126 10 μM, dyskinetic (LID) mice): prevented LTP induction; also recorded: LTP was disrupted
STDP LTP induction in dSPNs ([2]; U0126 10 μM, naive mice): disrupted STDP LTP; also recorded: LTP induction was disrupted

Cc1c(C(=O)NN2CCCCC2)nn(-c2ccc(Cl)cc2Cl)c1-c1ccc(I)cc1 [AM251]
LTD induction in dSPNs ([1]; AM251 2 μM with CNO): dependent upon endocannabinoid (eCB) CB 1 receptors; also recorded: LTD was blunted

CCN1CCCC1CNC(=O)c1cc(S(N)(=O)=O)ccc1OC (stereo not drawn) [sulpiride]
LTD induction in dSPNs ([1]; sulpiride 10 μM with physostigmine 10 μM and VU10010 5 μM): LTD was induced

CCCCn1c(=O)sn(CC)c1=O [CCG203769]
LTD induction in dSPNs ([1]; CCG203769 10 μM intracellular, without VU10010): enhanced induction of LTD; also recorded: promoted the induction of LTD
LTD induction in dSPNs ([1]; CCG203769 with VU+PHY+MT3 (M4R antagonized)): antagonizing M4Rs had no effect on dSPN LTD
LTD induction in dSPNs ([1]; CCG203769 with VU+PHY+MT3 (M4R antagonized), listed as CCG): enhanced LTD induction

N[C@@H](Cc1ccc(O)c(O)c1)C(=O)O [L-DOPA, L-3,4-dihydroxyphenylalanine]
STDP LTP induction in dSPNs ([2]; 6-OHDA lesioned mice, slices one hour after last L-DOPA injection): led to a robust LTP; also recorded: LTP was recovered
forelimb use asymmetry (forelimb use asymmetry; L-DOPA alone): 47.98±2.41
plasticity in iSPNs with pre-post pairing protocol (iSPN synapses): induced an LTD

Cc1cccc(C#Cc2ccccc2)n1 [MPEP]
LTD induction in dSPNs ([1]; MPEP 10 μM with CCG203769): prevented the LTD induction; also recorded: LTD was disrupted

C[N+]1([O-])CCN(C2=Nc3cc(Cl)ccc3Nc3ccccc32)CC1 [CNO, clozapine-N-oxide]
LTD induction in adjacent dSPNs ([1]; CNO 10 μM, elevated ChI activity via DREADD hM3D(q)): led to a robust LTD
ChI discharge rate, median ([3]; CNO 10 μM bath perfusion, n=5): 6.7 Hz
ChI discharge rate, range ([3]; CNO 10 μM bath perfusion, n=5): 4.2-7.8 Hz
ChI spontaneous discharge rate (in words) ([3]; CNO 10 μM, cell-attached patches): increased ChI spontaneous discharge rate

C[C@@H]1O[C@H](C[N+](C)(C)C)C[C@H]1O [muscarine]
amplitudes of NMDAR-mediated EPSCs [4]: reduced the amplitudes

COc1ccc(CNC(=O)c2sc3nc(C)cc(C)c3c2N)cc1 [VU152100]
cumulative AIM scores (L-DOPA-induced AIMs; VU152100 60 mg/kg systemic, with L-DOPA): significantly reduced cumulative AIM scores
anti-dyskinetic effect on doubling the dose (L-DOPA-induced AIMs; VU152100 120 mg/kg, with L-DOPA): did not increase the anti-dyskinetic effect
AIM scores, dose relation (L-DOPA-induced AIMs; VU152100 20, 60, 120 mg/kg): dose-dependent effect
L-DOPA-induced AIM scores (L-DOPA-induced AIMs; VU152100 20-120 mg/kg i.p. with L-DOPA, days 6-8): significantly attenuated
forelimb use asymmetry (forelimb use asymmetry; L-DOPA+VU152100, p>0.05 vs L-DOPA): 38.6±3.04
effect on anti-parkinsonian action of L-DOPA (forelimb use asymmetry) (forelimb use asymmetry; VU152100 co-administered with L-DOPA): did not occur at the expense of the anti-parkinsonian action of L-DOPA
level of phosphorylated ERK (pERK) ([5]; VU0152100 60 mg kg-1): reduced the levels of LID biomarkers
level of phosphorylated histone3 (pH3) ([5]; VU0152100 60 mg kg-1): reduced the levels of LID biomarkers
number of cells immunoreactive for phosphorylated ERK1/2 (pERK1/2) [5, 6]: reduced the number of cells; also recorded: reduced expression
number of cells immunoreactive for phosphorylated histone 3 (pH3) [5, 6]: reduced the number of cells; also recorded: reduced expression
